# In patent US9708330B2, “2,3-dihydroimidazol[1,2-C]pyrimidin-5(1-H)-one based ipoprotein-associated phospholipase A2 (Lp-PLA2) inhibitors” (GlaxoSmithKline Intellectual Property Development Limited, priority 2013, dated 2017):
# Key:
# rat EAE model = assay: Rat experimental autoimmune encephalomyelitis (EAE) model, preventive treatment; format: in vivo
# Experimental: A further study was carried out to study the impact of Lp-PLA2 inhibitors on modulating M1/M2 imbalance. In this study, rats were induced to develop experimental autoimmune encephalomyelitis (EAE) by immunization with myelin basic protein (MBP) antigen and treated with a known Lp-PLA2 inhibitor: 5-((9-Methoxy-4-oxo-6,7-dihydro-4H-pyrimido[6,1-a]isoquinolin-2-yl)oxy)-2-(3-(trifluoromethyl)phenoxy)benzonitrile (See PCT application no. PCT/CN2011/001597). In this preventive treatment model, the compound was administered at day 0 (day of immunization) and continued to administer until day 22. The study lasted for 25 days. Rats were subsequently monitored for symptoms of EAE. Rats were immunized with MBP to develop EAE and symptoms were monitored daily. Plasma Lp-PLA2 activity, OxLDL, and LysoPC concentration were determined at different time points through the course of EAE.
# [1] = test system: splenic macrophages and CNS infiltrating macrophages; assay: Ex vivo analysis of M1 and M2 markers in macrophages of EAE rats by realtime PCR; design: species or system rat; details: macrophages of compound treated EAE rats, day 13 post MBP-immunization
# Experimental: Ex vivo analysis of proinflammatory (M1) and anti-inflammatory (M2) markers in control and compound treated EAE rats. Splenic macrophages were harvested at day 13 post MBP-immunization and assayed for expression of a variety of markers by realtime PCR. CNS infiltrating cells were harvested and macrophages were analyzed for expression of M1 and M2 markers by realtime PCR.
# Lp-PLA2 in human plasma [2] = target: T1, Lp-PLA2 in human plasma (Homo sapiens, UniProt Q13093); assay: Lp-PLA2 human plasma assay, Thio-PAF assay (3a); format: biochemical; details: pooled human plasma, Examples 1-137, read-out: pIC50 in the Lp-PLA2 human plasma assay (converted)
# T1 construct: from tissue; host or cells: pooled human plasma
# T1 sequence (Q13093 22-441): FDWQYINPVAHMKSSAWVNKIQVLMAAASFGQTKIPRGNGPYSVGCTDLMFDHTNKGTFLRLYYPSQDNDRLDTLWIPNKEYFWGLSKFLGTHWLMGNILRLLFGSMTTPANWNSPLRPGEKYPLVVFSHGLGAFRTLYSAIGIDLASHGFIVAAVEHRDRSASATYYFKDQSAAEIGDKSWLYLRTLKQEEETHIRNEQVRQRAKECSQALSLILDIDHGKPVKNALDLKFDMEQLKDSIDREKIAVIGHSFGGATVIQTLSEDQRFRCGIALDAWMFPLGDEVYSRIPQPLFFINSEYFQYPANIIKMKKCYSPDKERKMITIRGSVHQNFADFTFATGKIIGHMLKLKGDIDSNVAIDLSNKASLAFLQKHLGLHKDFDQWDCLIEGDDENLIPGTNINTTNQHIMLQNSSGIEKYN
# Description: The human plasma assay utilizes a thioester analog of PAF (phosphatidylcholine), where hydrolysis yields to the formation of a phospholipid containing a free thiol group. The amount of thiol is quantitated continuously by reacting with CPM (7-diethylamino-3-(4′-maleimidylphenyl)-4-methylcoumarin), a maleimide which increases in fluoresence after Michael addition of thiols. This assay may detect the activity of Lp-PLA2 in human plasma, as determined by specific inhibition by Lp-PLA2 inhibitors.
# The thio-PAF assay was run as a quenched 15 μL assay. Compounds source plate was prepared by making 1:3 (by volume) serial dilution of the compounds into pure DMSO on 384-well microplate. 0.01 μL of compounds on compound source plate were transferred to 384 well Greiner 784076 (black) low-volume plates by ECHO liquid dispenser. 8 μL pooled human plasma, which was previously aliquoted and frozen, was added. Plates were centrifuged for 10 sec at 500 rpm. After 30 minutes preincubation, 2 μL of substrate solution comprising 2.5 mM 2-thio-PAF [from ethanol stock], 32 μM CPM [from a DMSO stock] and 3.2 mM NEM (N-ethylmaleimide) [made fresh daily in DMSO] in assay buffer of 50 mM HEPES, pH 7.4, 150 mM NaCl, 1 mM CHAPS was added to 384 well Greiner 784076 (black) low-volume plates by BRAVO liquid handling station. […] Plates were read at ex: 380 /em: 485 using Envision microplate reader. […]
# [3] = target: T2, recombinant human Lp-PLA2 (Homo sapiens, UniProt Q13093); assay: Recombinant human Lp-PLA2 assay (rhLp-PLA2), PED6 assay; format: biochemical; details: Examples 1-137, read-out: rhLp-PLA2 (pIC50) (converted)
# T2 sequence (Q13093 22-441): T1 sequence (Q13093 22-441)
# Description: N-((6-(2,4-dinitrophenyl)amino)-hexanoyl)-2-(4,4-difluoro-5,7-dimethyl -4-bora-3a,4a-diaza-s-indacene-3-pentanoyl)-1-hexadecanoyl-sn-glycero-3-phosphoethanolamine, triethylammonium salt (PED6) is a commercially available fluorescently-labeled phospholipid, which is commercially available from Invitrogene and Molecular Probes. There is a quenching para-nitro phenyl (PNP) group in the sn3 position and a Bodipy fluorescein (FL) group in the sn2 position. Upon cleavage with Lp-PLA2, the Bodipy FL group is liberated and then may result in an increase in fluorescence. Inhibitors of Lp-PLA2 therefore prevent this cleavage and no fluorescent increase is observed.
# The PED6 assay was run as an unquenched 10 μL assay. The source plate containing the compounds to be tested was prepared by making 1:3 (by volume) serial dilution of the compounds within DMSO on 384-well microplate. Then, 0.01 μL of the compounds on compound source plate were transferred into 384 well Greiner 784076 (black) plates using ECHO liquid dispenser. […] The plates were read for fluorescence intensity at ex: 480/em: 540 using ViewLux microplate imager for Envision spectrofluroimeters pIC50 data, curve and QC analysis was conducted by using XL fit module in Excel.
# Lp-PLA2 in human plasma [4] = target: T1, Lp-PLA2 in human plasma; assay: Lp-PLA2 human plasma assay, alternative Thio-PAF assay (3b); format: biochemical; details: pooled human plasma, Example 138, read-out: pIC50 in the Lp-PLA2 human plasma assay (converted)
# Experimental: The human plasma assay utilizes the same thioester analog of PAF as described in (1b) “hr ThioPAF” assay. This assay may detect the activity of Lp-PLA2 in human plasma, as determined by specific inhibition by Lp-PLA2 inhibitors.
# The thio-PAF assay was run as a quenched 20 μL assay. Compounds source plate was prepared by making 1:3 (by volume) serial dilution of the compounds into pure DMSO on 96-well microplate. 5 μL of compounds on compound source plate were transferred to 96-well Corning 3686 (black) low-volume plates by STAR+ (Hamilton) liquid dispenser. 10 μL pooled human plasma, which was previously aliquoted and frozen, was added. Plates were centrifuged for 30 sec at 1000 rpm. After 15 minutes preincubation at room temperature, 5 μL of substrate solution comprising 2 mM 2-thio-PAF [from ethanol stock], 52 μM CPM [from a DMSO stock] and 2.5 mM NEM (N-ethylmaleimide) [made fresh daily in DMSO] in assay buffer (50 mM HEPES, pH 7.4, 150 mM NaCl, 1 mM CHAPS) was added to 96-well Corning 3686 (black) low-volume plates. After 3 mins, reaction was quenched with 10 μL of 5% aqueous trifluoroacetic acid (TFA). Plates were centrifuged 30 sec at 1000 rpm, covered to protect from light and incubated for 10 min at room temperature. Plates were read at ex: 380 nm/em: 485 nm using Envision plate reader (Perkin Elmer). […]
# [5] = target: T2, recombinant human Lp-PLA2; assay: Recombinant human Lp-PLA2 assay, hrThioPAF assay; format: biochemical; details: Example 138, read-out: rhLp-PLA2 (pIC50) (converted)
# Description: 1-O-hexadecyl-2-deoxy-2-thio-S-acetyl-sn-glyceryl-3-phosphorylcholine (2-thio-PAF) is a substrate for PAF-hydrolases (PAF-AH) commercially available from Cayman Chemical. Upon cleavage with PAF-AH, the free thiol is released at the sn-2 position and can then react with 7-diethylamino-3-(4′-maleimidylphenyl)-4-methylcoumarin (CPM) a thiol-reactive coumarin. This reaction (Michael addition) results in an increase in fluorescence. Inhibitors of Lp-PLA2 therefore prevent this cleavage and no fluorescent increase is observed.
# The Thio-PAF assay was run as an unquenched 20 μL assay. The source plate containing the compounds to be tested was prepared by making 1:3 (by volume) serial dilution of the compounds within DMSO on 384-well microplate. Then, 5 μL of the compounds on compound source plate were transferred into 384 well Greiner 784076 (black) plates using STAR+ (Hamilton) liquid dispenser. 10 μL of recombinant human Lp-PLA2 enzyme (20 pM rhLp-PLA2 in assay buffer of 50 mM HEPES, pH 7.4, 150 mM NaCl, 1 mM CHAPS) was added to each well of the plate. […] The plates were read for fluorescence intensity at ex: 380 nm/em: 485 nm using Envision plate reader (Perkin Elmer). […]
structure (smiles),measurement,setting,value
"COc1ccc2c(c1)CCn1c-2cc(Oc2ccc(Oc3cccc(C(F)(F)F)c3)c(C#N)c2)nc1=O [5-((9-Methoxy-4-oxo-6,7-dihydro-4H-pyrimido[6,1-a]isoquinolin-2-yl)oxy)-2-(3-(trifluoromethyl)phenoxy)benzonitrile]",plasma Lp-PLA2 activity,rat EAE model; rat EAE plasma,decreased
same,plasma LysoPC levels,rat EAE model; rat EAE plasma,decreased
same,clinical disease (EAE symptoms),"rat EAE model; rats immunized with MBP, compound administered day 0 until day 22",reduction in clinical disease
same,anti-inflammatory (M2) markers expression,[1],increase in M2 markers
same,proinflammatory (M1) markers expression,[1],decrease in M1 markers
"C[C@H]1Cn2c(cc(OCc3cccc(F)c3F)nc2=O)N1C [E111, (S)-7-((2,3-difluorobenzyl)oxy)-1,2-dimethyl-2,3-dihydroimidazo[1,2-c]pyrimidin-5(1H)-one]",IC50,Lp-PLA2 in human plasma [2],> 10000 nM
"CC1(C)Cn2c(cc(OCc3ccc(F)c(F)c3)nc2=O)N1 [E120, 7-((3,4-difluorobenzyl)oxy)-2,2-dimethyl-2,3-dihydroimidazo[1,2-c]pyrimidin-5(1H)-one]",IC50,Lp-PLA2 in human plasma [2],> 10000 nM
"C[C@H]1Cn2c(cc(OCc3cc(F)c(Oc4ccnc(C(F)(F)F)c4)c(F)c3)nc2=O)N1 [E131, (S)-7-((3,5-difluoro-4-((2-(trifluoromethyl)pyridin-4-yl)oxy)benzyl)oxy)-2-methyl-2,3-dihydroimidazo[1,2-c]pyrimidin-5(1H)-one]",IC50,[3],0.251 nM
"C[C@@H]1Cn2c(cc(OCc3cc(F)c(Oc4ccnc(C(F)(F)F)c4)c(F)c3)nc2=O)N1 [E138, (R)-7-((3,5-difluoro-4-((2-(trifluoromethyl)pyridin-4-yl)oxy)benzyl)oxy)-2-methyl-2,3-dihydroimidazo[1,2-c]pyrimidin-5(1H)-one]",IC50,Lp-PLA2 in human plasma [4],≤ 100 nM
same,IC50,[5],0.794 nM
